One data set has as its system C. apicola. As to the kind of experiment: MIC80 broth microdilution. To be noted: Starmerella apicola, 80% growth inhibition, RPMI-1640. It counts as cell-based, Candida apicola. The source says:
(§1) Fluconazole, an ergosterol inhibitor, and the beta-1,3-glucan inhibitor micafungin served as controls (See Tables 1 and 2).
(§2) The minimum inhibitory concentrations resulting in 80% growth inhibition (MIC of multiple Candida species (Candida albicans, Candida tropicalis, Candida, guilliermondii, Candida glabrata, Candida lusitaniae, Candida parapsilois, Candida neoformans, Candida krusei, and Candida apicola) as well as Aspergillus fumigatus to a set of formula (II), (III), (IV), and (V) was determined in accordance with the guidelines in CLSI document M27-A2 (Clinical and Laboratory Standards Institute; Wayne, Pa.). The total volume of cells and drug was 100 μL per microtiter well, and each drug was diluted in RPMI to achieve final concentrations of 0.2-100 μg/ml. Uninoculated cultures were used as a reference standard. Stock inoculum suspensions were prepared from 24 hour cultures on YPD (yeast extract/peptone/dextrose) media at 30° C.
(§3) For MIC determinations, an inoculum of 1.0×10^3 cells of Candida and 2.0×10^3 cells of Aspergillus per well were used, and cells in diluted drugs were prepared in RPMI-1640 medium. MICs were determined both visually and spectrophotometrically at 24 hours and 48 h at 550 nm using a micro plate reader. The MIC80 endpoint was measured as the lowest drug concentration resulting in a reduction of growth of 80% or more compared with growth of the control.
On the technique in general: Dilution methods test growth across graded concentrations, often in twofold steps.

A further data set relates to C. albicans (CaMDR). Briefly: MIC80 broth microdilution. The data set is classed as cell-based. To be noted: Candida albicans, read-out: Activity (MIC80).
Excerpt: as §1, §2, §3

The subject of a further data set is C. albicans (SC5314). Briefly: MIC80 broth microdilution. It counts as cell-based. Conditions: Candida albicans, 80% growth inhibition, RPMI-1640, read at 24 and 48 h.
Excerpt: as §1, §2, §3

For another data set, the system named is C. tropicalis. Briefly: MIC80 broth microdilution. The data set is classed as cell-based. Conditions: Candida tropicalis, 80% growth inhibition, RPMI-1640.
Excerpt: as §1, §2, §3

A further data set has as its system C. parapsilosis. Briefly: MIC80 broth microdilution. To be noted: Lodderomyces parapsilosis, 80% growth inhibition, RPMI-1640. It counts as cell-based, Candida parapsilosis.
Excerpt: as §1, §2, §3

The next data set deals with C. neoformans JEC-21. Briefly: MIC80 broth microdilution. To be noted: Cryptococcus neoformans, JEC21, 80% growth inhibition, RPMI-1640. It counts as cell-based, Candida neoformans.
Excerpt: as §1, §2, §3

For the next data set, the system named is C. neoformans H99. Briefly: MIC80 broth microdilution. It counts as cell-based, Candida neoformans. To be noted: Cryptococcus neoformans, 80% growth inhibition, RPMI-1640.
Excerpt: as §1, §2, §3

For a further data set, the system named is C. lusitaniae. As to the kind of experiment: MIC80 broth microdilution. It counts as cell-based, Candida lusitaniae. Conditions: Clavispora lusitaniae, 80% growth inhibition, RPMI-1640.
Excerpt: as §1, §2, §3

The subject of the next data set is C. glabrata. As to the kind of experiment: MIC80 broth microdilution. The data set is classed as cell-based, Candida glabrata. To be noted: Nakaseomyces glabratus, 80% growth inhibition, RPMI-1640.
Excerpt: as §1, §2, §3

In the next data set the test system is C. krusei. Briefly: MIC80 broth microdilution. It counts as cell-based, Candida krusei. Conditions: Pichia kudriavzevii, 80% growth inhibition, RPMI-1640.
Excerpt: as §1, §2, §3

In another data set the test system is C. guilliermondii. As to the kind of experiment: MIC80 broth microdilution. The data set is classed as cell-based, Candida guilliermondii. Conditions: Meyerozyma guilliermondii, 80% growth inhibition, RPMI-1640.
Excerpt: as §1, §2, §3

For the next data set, the system named is A. fumigatus H11-20. Briefly: MIC80 broth microdilution. The data set is classed as cell-based. To be noted: Aspergillus fumigatus, H1120, 80% growth inhibition, RPMI-1640.
Excerpt: as §1, §2, §3

A further data set relates to MDR A. fumigatus. Briefly: MIC80 broth microdilution. Conditions: Aspergillus fumigatus, 80% growth inhibition, RPMI-1640. It counts as cell-based.
Excerpt: as §1, §2, §3

The subject of a further data set is A. fumigatus AF293. As to the kind of experiment: MIC80 broth microdilution. The data set is classed as cell-based. To be noted: Aspergillus fumigatus, 80% growth inhibition, RPMI-1640.
Excerpt: as §1, §2, §3

The subject of a further data set is NIH/3T3 Fibroblast cell. Briefly: MTT toxicity assay. It counts as cell-based. To be noted: MTT after 24 hours and 48 hours. As to the method: (§4) The MTT assay is a colorimetric assay that measures the reduction of yellow 3-(4,5-dimethythiazol-2-yl)-2,5-diphenyl tetrazolium bromide (MTT) by mitochondrial succinate dehydrogenase. The MIT enters the cells and passes into the mitochondria where it is reduced to an insoluble, dark purple, formazan product. The cells are then solubilized with an organic solvent (e.g., isopropanol) and the released, solubilized formazan reagent is measured spectrophotometrically. Since reduction of MTT can only occur in metabolically active cells, the level of activity is a measure of the viability of the cells.
(§5) Cells of the HepG2 liver cell, NIH/3T3 fibrolast cell, or 293T kidney cell were seeded in a 96 well plate. The plate was incubated overnight at 37° C. in a humidified incubator, 5% CO2. Compounds of formula (II), (III), (IV), (V), and (VI) were added to the plate. Different concentrations of drug were tested in triplicate along with a negative control. The final volume was adjusted to 100 μl per well. The plate was incubated overnight at 37° C. in a humidified incubator, 5% CO2. After 24 hours and 48 hours, MTT reagent (5 mg/ml, 10 μl/100 μl per well of the 96 well plate) was added and incubated at 37° C. for 3 hours. After 3 hours, 100 μl of the DMSO solution was added to each well and the plate was rocked at room temperature for 1 hour. The plate was then read on a plate reader at […]. The results are shown below in tables 1 and 2.
(In general: Tetrazolium dyes change colour on reduction, which living cells bring about.)

For another data set, the system named is 293T kidney cell. Briefly: MTT toxicity assay. To be noted: MTT after 24 hours and 48 hours. It counts as cell-based. As to the method: as §4, §5
The subject of the next data set is HepG2 liver cell. Briefly: MTT toxicity assay. To be noted: MTT after 24 hours and 48 hours. It counts as cell-based, human. As to the method: as §4, §5
A further data set has as its system C. albicans (wild type). Briefly: E-test of formula (II) and fluconazole. It counts as cell-based, Candida albicans. To be noted: fluconazole E test strips on YPD plate, 48 h at 30° C. As to the method: E test strips (Biomerieux) containing a graded series of fluconazole concentration are placed on a YPD plate that had been previously inoculated to confluency with C. albicans. The strip plate that was inoculated, is incubated for 48 h at 30° C. The zone of inhibition at the lowest concentration of fluconazole is read as the MIC. The results, shown in FIG. 2, indicate synergy between the compound of formula (II) and fluconazole.

≈ marks a conversion by molar mass, not a printed value. A value given as a limit tells only on which side of the number the result lay.

Turning to `OC(Cn1cncn1)(Cn1cncn1)c1ccc(F)cc1F` [Fluconazole, reference compound], the MIC80 (as a rule, the lowest concentration that inhibits either 80% of growth or 80% of the strains tested, depending on the study) in the data set with C. apicola was 0.25 µg/mL (≈ 0.816 µM); in the data set with C. albicans (CaMDR), 32 µg/mL (≈ 104 µM); against C. albicans (SC5314), 0.25 µg/mL (≈ 0.816 µM); against C. tropicalis it was 0.5 µg/mL (≈ 1.63 µM); against C. parapsilosis it was 1 µg/mL (≈ 3.27 µM); against C. neoformans JEC-21, 2 µg/mL (≈ 6.53 µM). Moreover, the MIC80 in the data set on C. neoformans H99 was determined as 4 µg/mL (≈ 13.1 µM); in the data set on C. lusitaniae, 2 µg/mL (≈ 6.53 µM); against C. glabrata, 2 µg/mL (≈ 6.53 µM); against C. krusei, 32 µg/mL (≈ 104 µM); with C. guilliermondii, 2 µg/mL (≈ 6.53 µM).
`CCC(C)n1ncn(-c2ccc(N3CCN(c4ccc(OCC5COC(Cn6cncn6)(c6ccc(Cl)cc6Cl)O5)cc4)CC3)cc2)c1=O` (stereo not shown) [Itraconazole, reference compound]: the MIC80 in the data set on A. fumigatus H11-20 is 0.5 µg/mL (≈ 0.709 µM); in the data set on MDR A. fumigatus it was above 100 µg/mL; with A. fumigatus AF293 it was 0.5 µg/mL (≈ 0.709 µM).
Turning to `COc1cc2cc[n+]3c(C)c4cc5c(cc4cc3c2cc1OC)OCO5` [compound 156624], the MIC80 against C. apicola came out at 4 µg/mL; in the data set on A. fumigatus H11-20, 4 µg/mL; in the data set with C. albicans (CaMDR), 0.2 µg/mL; with C. albicans (SC5314), 4 µg/mL; against MDR A. fumigatus, 4 µg/mL; in the data set with A. fumigatus AF293 it was 4 µg/mL. Further, the MIC80 against C. tropicalis turned out to be 4 µg/mL; in the data set with C. parapsilosis, 8 µg/mL; with C. neoformans JEC-21, 1 µg/mL; in the data set with C. neoformans H99, 8 µg/mL; with C. lusitaniae, 1 µg/mL; in the data set on C. glabrata, 1 µg/mL. Besides, the MIC80 with C. krusei and in the data set with C. guilliermondii was 4 µg/mL throughout. Further, the “toxicity (MTT)” value in the data set on NIH/3T3 Fibroblast cell is above 100 µg/mL; in the data set on 293T kidney cell it was 80 µg/mL; in the data set with HepG2 liver cell, 80 µg/mL.
Turning to `Cc1c2cc3c(cc2cc2c4cc5c(cc4cc[n+]12)OCO5)OCO3` [compound 156627], the MIC80 came to 0.5 µg/mL against C. apicola; 0.5 µg/mL against A. fumigatus H11-20; 0.05 µg/mL with C. albicans (CaMDR); 0.5 µg/mL in the data set with C. albicans (SC5314); 0.5 µg/mL in the data set on MDR A. fumigatus; 0.5 µg/mL in the data set on A. fumigatus AF293. Besides, the MIC80 in the data set on C. tropicalis was 0.5 µg/mL; against C. parapsilosis it was 1 µg/mL; against C. neoformans JEC-21, below 0.2 µg/mL; with C. neoformans H99, 1 µg/mL; in the data set on C. lusitaniae, below 0.2 µg/mL; with C. glabrata it was below 0.2 µg/mL. In addition, the MIC80 against C. krusei and with C. guilliermondii was 0.5 µg/mL each time. Further, in the data set with C. albicans (wild type), the “interaction with fluconazole (E-test)” value is given as “synergy”. Besides, the “toxicity (MTT)” value in the data set with NIH/3T3 Fibroblast cell turned out to be 40 µg/mL; in the data set on 293T kidney cell it was 25 µg/mL; in the data set on HepG2 liver cell, 25 µg/mL.
Turning to `CCc1c2cc3c(cc2cc2c4cc5c(cc4cc[n+]12)OCO5)OCO3` [compound 157108], the MIC80 in the data set on C. apicola was determined as 1 µg/mL; against A. fumigatus H11-20, 1 µg/mL; in the data set with C. albicans (CaMDR), 0.2 µg/mL; against C. albicans (SC5314), 1 µg/mL; in the data set on MDR A. fumigatus it was 1 µg/mL; in the data set with A. fumigatus AF293, 1 µg/mL. Moreover, the MIC80 against C. tropicalis turned out to be 2 µg/mL; in the data set on C. parapsilosis it was 2 µg/mL; in the data set on C. neoformans JEC-21, 0.2 µg/mL; in the data set on C. neoformans H99, 2 µg/mL; in the data set on C. lusitaniae, 0.2 µg/mL; in the data set on C. glabrata, 0.2 µg/mL. The MIC80 with C. krusei and against C. guilliermondii was 2 µg/mL each time. Further, the “toxicity (MTT)” value in the data set on NIH/3T3 Fibroblast cell came to 100 µg/mL; in the data set on 293T kidney cell, 70 µg/mL; in the data set with HepG2 liver cell it was 64 µg/mL.
On to `COc1cc2cc3c4cc5c(cc4cc[n+]3c(C)c2cc1OC)OCO5` [compound 160459], for which the MIC80 against C. apicola worked out at 4 µg/mL; against A. fumigatus H11-20, 4 µg/mL; with C. albicans (CaMDR) it was 0.1 µg/mL; with C. albicans (SC5314) it was 4 µg/mL; in the data set on MDR A. fumigatus, 4 µg/mL; against A. fumigatus AF293, 4 µg/mL. For the same molecule, the MIC80 in the data set with C. tropicalis came out at 4 µg/mL; with C. parapsilosis it was 8 µg/mL; with C. neoformans JEC-21, 0.5 µg/mL; in the data set with C. neoformans H99, 8 µg/mL; in the data set on C. lusitaniae, 1 µg/mL; against C. glabrata it was 0.5 µg/mL. Also, the MIC80 in the data set with C. krusei and in the data set on C. guilliermondii was 4 µg/mL throughout. Also, the results for the “toxicity (MTT)” value in the data set on NIH/3T3 Fibroblast cell, in the data set with 293T kidney cell and in the data set with HepG2 liver cell were 80 µg/mL, 60 µg/mL and 50 µg/mL, respectively.
Regarding `COc1ccc2cc3c4cc5c(cc4cc[n+]3cc2c1OC)OCO5` [compound 403831], the MIC80 in the data set with C. apicola was 1 µg/mL; against A. fumigatus H11-20, 1 µg/mL; with C. albicans (CaMDR), 0.1 µg/mL; in the data set with C. albicans (SC5314) it was 1 µg/mL; with MDR A. fumigatus it was 1 µg/mL; in the data set on A. fumigatus AF293, 1 µg/mL. Further, the MIC80 against C. tropicalis was found to be 1 µg/mL; against C. parapsilosis, 2 µg/mL; in the data set on C. neoformans JEC-21 it was 0.5 µg/mL; against C. neoformans H99 it was 0.5 µg/mL; in the data set on C. lusitaniae, 0.5 µg/mL; in the data set with C. glabrata, 0.25 µg/mL. The MIC80 in the data set with C. krusei came out at 2 µg/mL; with C. guilliermondii it was 1 µg/mL. In addition, the “toxicity (MTT)” value in the data set with NIH/3T3 Fibroblast cell came to 96 µg/mL; in the data set on 293T kidney cell, 80 µg/mL; with HepG2 liver cell it was 80 µg/mL.
